Reference: patent US8283373B2, “Inhibitors of cytosolic phospholipase A2” (Pfizer Inc., priority 2005, dated 2012)

What was measured:
[1] = test system: FeCl3-induced arterial thrombosis; test: FeCl3-induced model of arterial thrombosis; assay type: in vivo; settings: rat, 25 mg/kg oral gavage 2 h before FeCl3 injury
Method: Two hours prior to induction of vascular injury, Sprague Dawley outbreed rats (80-100 gram of body weight) received 4-(3-{5-chloro-1-(diphenylmethyl)-2-[2-({[2-fluoro-6-(trifluoromethyl)benzyl]sulfonyl}amino)ethyl]-1H-indol-3-yl}propyl)benzoic acid (Example 14) or 4-(3-{5-chloro-1-(diphenylmethyl)-2-[2-({[2-(trifluoromethoxy)benzyl]sulfonyl}amino)ethyl]-1H-indol-3-yl}propyl)benzoic acid (Example 25) at a dose of 25 mg/kg by oral gavage. The total volume of gavage was 0.5 ml. The control group of animals had been treated with only vehicle. Fifteen minutes before vascular injury rats were anesthetized by an intramuscular injection of a ketamine/xylazyne mixture. Following anesthesia the left carotid artery was dissected and exposed for further measurements. For induction of prothrombotic injury, a round piece of filter paper (2 mm in diameter) soaked in 10% of FeCl3 solution was applied onto the wall of the exposed vessel. After 5 minutes the filter paper was removed and the 1PRB perivasular Doppler flow probe (Transonic Systems Inc.) was secured around the carotid artery to measure blood flow. Blood flow was recorded for a total period of 30 minutes using Transonic Flow Meter (model TS420, Transonic Systems Inc.) and Windaq data acquisition software.

[2] = test system: experimental autoimmune encephalomyelitis (EAE); test: Experimental autoimmune encephalomyelitis (EAE) model of multiple sclerosis; assay type: in vivo, mouse; settings: administered from the time of immunization, or in mice with or close to EAE
Method: Six groups of B6 mice were immunized with MOG/CFA and injected with pertussis toxin to induce experimental autoimmune encephalomyelitis (EAE), an animal model of Multiple sclerosis. Three groups of mice were treated with vehicle, 4-{3-[1-benzhydryl-5-chloro-2-(2-{[(2,6-dimethylbenzyl)sulfonyl]amino}ethyl)-1H-indol-3-yl]propyl}benzoic acid (Compound A), or 4-{2-[1-benzhydryl-5-chloro-2-(2-{[(3,4-dichlorobenzyl)sulfonyl]amino}-ethyl)-1H-indol-3-yl]ethoxy}benzoic acid (Compound B) from the day of Immunization (orally, 100 mg/kg, twice/day). Another three groups of mice were treated with vehicle, Compound A or Compound B starting on the day of EAE onset (day 15) (orally, 100 mg/kg, twice/day). […] The results are shown in the Table below, wherein mean clinical score is a mean of clinical evaluation of each animal for that particular day.
Animals are Scored as Follows:
• 0—no clinical signs of EAE (no paralysis) • 1—paralysis of tail • 2—paralysis of tail and partial hind leg paralysis • 3—paralysis of tail and complete hind leg paralysis • 4—paralysis of tail, complete hind leg paralysis and a partial front leg paralysis • 5—moribund animal (all four limbs paralyzed, lack of responsiveness, these mice were immediately euthanized).
In addition, the compounds of Examples 14 and 25 were also found to be efficacious in the mouse experimental autoimmune encephalomyelitis (EAE) model of multiple sclerosis. As shown by the data in the Table below, these compounds led to a delayed onset of disease and reduced severity of disease when administered orally in doses as low as 2.5 mg/kg.

TXB2 = test: Rat Whole Blood Assay (A23187-stimulated TXB2); assay type: cell-based; settings: Rattus norvegicus; A23187 5 μM
Summary of the method: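 Heparinized male Sprague-Dawley rat blood pre-incubated 15 min at 37 °C with compound or DMSO, then stimulated with 5 μM (final) A23187 for 10 min at 37 °C. Stopped with 20 mM EDTA; TXB2 in methanol-extracted plasma measured by ELISA.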

serum thromboxane B2 [3] = test: Thromboxane B2 levels in rats with FeCl3 induced thrombosis; assay type: in vivo, rat; settings: rats subjected to ferric chloride injury, ELISA
Method: Blood was collected from rats that were dosed with vehicle, the compound of Example 14 or the compound of Example 25, and subjected to the ferric chloride Injury protocol above. Blood was collected from the vena cava and blood coagulation was allowed to take place for 1 hour at 37 degree Celsius. Serum was then isolated and serum thromboxane B2 levels were determined by ELISA.

[4] = test system: Human platelet aggregation; test: Platelet Function Analyzer (PFA-100) study; assay type: cell-based; settings: whole human blood
Method: Human platelet aggregation was studied using the platelet function analyzer (PFA-100®). Human blood was collected from volunteers who had denied taking any platelet inhibitory medications over the previous two weeks. Blood was collected in 3.2% sodium citrate Vacutainer tubes (Becton Dickinson). Tubes were inverted 5 times and the blood was transferred to 15 ml polypropylene conical tubes. […] Tubes were inverted 10 times to mix, and allowed to sit at room temperature for 10 minutes prior to run in PFA-100. The manufacturers protocol was followed for the PFA-100 using Collagen/Epinephrine cartridges (0.5% DMSO alone in whole blood gave closure times of 125+/−13.9 seconds). Maximum closure time is 300 seconds, as set by the manufacturer.
All compounds were efficacious in the platelet function assay.

cPLA2α = molecular target: T1, cPLA2α (Homo sapiens, UniProt P47712); test: GLU Micelle Assay; assay type: biochemical
T1 sequence (P47712 1-749): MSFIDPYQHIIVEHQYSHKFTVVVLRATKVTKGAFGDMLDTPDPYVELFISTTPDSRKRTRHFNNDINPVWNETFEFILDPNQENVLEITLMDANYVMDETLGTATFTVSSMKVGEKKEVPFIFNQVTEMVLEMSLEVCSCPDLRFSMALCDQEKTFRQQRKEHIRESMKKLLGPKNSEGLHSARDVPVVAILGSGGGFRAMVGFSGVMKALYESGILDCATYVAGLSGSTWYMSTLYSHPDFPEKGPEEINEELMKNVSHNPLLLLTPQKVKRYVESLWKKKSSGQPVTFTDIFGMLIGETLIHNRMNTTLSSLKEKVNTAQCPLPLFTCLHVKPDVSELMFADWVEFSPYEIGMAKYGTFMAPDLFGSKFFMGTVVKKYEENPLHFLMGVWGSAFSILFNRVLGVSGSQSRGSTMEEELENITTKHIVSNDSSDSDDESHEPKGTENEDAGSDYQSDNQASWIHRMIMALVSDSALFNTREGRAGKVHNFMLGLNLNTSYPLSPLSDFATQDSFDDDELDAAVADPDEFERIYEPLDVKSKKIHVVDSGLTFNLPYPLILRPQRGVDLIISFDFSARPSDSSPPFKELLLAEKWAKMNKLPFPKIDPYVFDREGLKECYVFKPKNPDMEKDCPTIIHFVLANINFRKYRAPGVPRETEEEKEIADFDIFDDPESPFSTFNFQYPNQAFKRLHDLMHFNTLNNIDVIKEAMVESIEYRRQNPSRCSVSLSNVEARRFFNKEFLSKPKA
Summary of the method: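 Fluorogenic micelle assay with 1 μg/ml cPLA2α and 90 μM GLU substrate plus 120 μM DTPC in 940 μM Triton X-100, 50 mM Hepes pH 7.4, 0.3 mM EDTA, 1 mM CaCl2, 300 mM KCl. Fluorescence (ex 355/em 460) was read every 4 min for 84 min. Percent inhibition came from slopes relative to positive and negative controls.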

serum thromboxane B2 [5] = test: Thromboxane B2 levels in the ApoE KO mouse model; assay type: in vivo; settings: ApoE KO mice, 10 mg/kg by oral gavage; vehicle 267.9±34.3
Method: Blood was collected through the retro-orbital siunus and left to coagulate at 37° C. for one hour. Serum was then isolated and assayed for thromboxane B2 by ELISA.
In a separate experiment, ApoE KO mice were dosed with vehicle or the compound of Example 25 at 10 mg/kg by oral gavage. Blood was collected through the retro-orbital siunus and left to coagulate at 37° C. for one hour. Serum was then isolated and assayed for thromboxane B2 by ELISA.

IC50 (TXB2) [nM] | IC50 (cPLA2α) [nM] | SMILES | blood flow and thrombus formation (FIG. 2) [1] | prevention of EAE / reduction of clinical severity [2] | serum thromboxane B2 levels (FIG. 3) (serum thromboxane B2 [3]) | platelet aggregation in human blood, in vitro (PFA-100, FIG. 1) [4] | PFA-100 closure time ([4]; Collagen/Epinephrine cartridges, 1.25 μg/ml) | serum Thromboxane concentration (serum thromboxane B2 [5]) [ng/mL] | efficacy in PFA-100 platelet function assay ([4]; at concentrations as low as 0.3 μg/ml)
20 | 30 | O=C(O)c1ccc(CCCc2c(CCNS(=O)(=O)Cc3c(F)cccc3C(F)(F)F)n(C(c3ccccc3)c3ccccc3)c3ccc(Cl)cc23)cc1 [Example 14, 4-(3-{5-chloro-1-(diphenylmethyl)-2-[2-({[2-fluoro-6-(trifluoromethyl)benzyl]sulfonyl}amino)ethyl]-1H-indol-3-yl}propyl)benzoic acid] | improved blood flow and reduction of thrombus formation | can prevent EAE | reduction of serum thromboxane B2 levels | inhibition of platelet aggregation | increased closure time | – | –
30 | 13 | O=C(O)c1ccc(CCCc2c(CCNS(=O)(=O)Cc3ccccc3OC(F)(F)F)n(C(c3ccccc3)c3ccccc3)c3ccc(Cl)cc23)cc1 [Example 25, 4-(3-{5-chloro-1-(diphenylmethyl)-2-[2-({[2-(trifluoromethoxy)benzyl]sulfonyl}amino)ethyl]-1H-indol-3-yl}propyl)benzoic acid] | – | can prevent EAE | reduction of serum thromboxane B2 levels | inhibition of platelet aggregation | – | 9.4 ± 5.0 | efficacious
120 | 68 | O=C(O)c1ccc(CCCc2c(CCNS(=O)(=O)CCc3ccccc3C(F)(F)F)n(C(c3ccccc3)c3ccccc3)c3ccc(Cl)cc23)cc1 [Example 15, 4-[3-(5-chloro-1-(diphenylmethyl)-2-{2-[({2-[2-(trifluoromethyl)phenyl]ethyl}sulfonyl)amino]ethyl}-1H-indol-3-yl)propyl]benzoic acid] | improved blood flow and reduction of thrombus formation | – | – | – | – | – | –
